Results from patent publication US7601745B2, “Heterocyclic NF-kB inhibitors” (4SC AG, priority 2004, dated 2009).

The compounds below were run on A549-NF-κB-SEAP reporter cells (assay: Inhibition of NF-κB-induced inflammation ([…] NINA Instant Assay, SEAP reporter)). Conditions: NF-κB inflammation assay.
Type: cell-based
Text: For the determination of anti-inflammatory activity of the compounds the […]® NINA Instant Assay from Cell Culture Service GmBH was used. This assay is based on recombinant A549-NF-κB-SEAP reporter cells preseeded in 96-well flat bottom plates. As the transfected reportergen for SEAP (secreted embryonic alkaline phosphatase) is under transcriptional control of a NF-κB-responsive element, the expression of this reporter is activated upon stimulation with TNF-α. SEAP secretion into the culture supernatant can be detected by the chemiluminescent substrate CSPD®. Test compounds that inhibit the NF-κB activation show reduced SEAP activity and reduced luminescent readout.
Following 18 h of reactivation at 37° C., 5% CO2 and 90% relative humidity, the cells were incubated with 0.01 up to 100 μM of test compound for 4.5 h before stimulation with 2 ng/ml TNF-α. After stimulation with TNF-α for 22 h endogenous phosphatases were inactivated and CSPD® substrate was supplied for 40 min. SEAP activity then was quantified by measuring luminescence as relative light units (RLU) using a Tecan Ultra reader. Each data point was recorded in quadruplicates and EC50 values were calculated via fitting function and the Microsoft Excel Solver.

| SMILES | Biological activity (inhibition in the NF-κB inflammation assay) |
| --- | --- |
| Cc1cc2nc(NC(=O)c3csc(NC(=O)c4ccccc4OC(F)(F)F)n3)[nH]c2cc1C [compound 25] | +++ (“+++” stands for 90-100% inhibition) |
| N=C(NC(=O)c1coc(NC(=O)c2ccc(C(F)(F)F)c(F)c2)n1)Nc1nc2ccccc2[nH]1 [compound 27] | +++ (“+++” stands for 90-100% inhibition) |
| N=C(NC(=O)c1csc(N2CCN(Cc3ccccc3)CC2)n1)Nc1nc2ccccc2[nH]1 [compound 30] | +++ (“+++” stands for 90-100% inhibition) |
| O=C(Nc1nc2ccccc2[nH]1)c1csc(NC(=O)c2ccccc2OC(F)(F)F)n1 [compound 31] | +++ (“+++” stands for 90-100% inhibition) |
| N=C(NC(=O)c1csc(C2CCN(C(=O)c3ccccc3OC(F)(F)F)CC2)n1)Nc1nc2ccccc2[nH]1 [compound 36] | +++ (“+++” stands for 90-100% inhibition) |
| Cc1cc2nc(NC(=O)c3coc(NC(=O)c4ccccc4OC(F)(F)F)n3)[nH]c2cc1C [compound 40] | +++ (“+++” stands for 90-100% inhibition) |
| CN1CCN(c2ccc3nc(NC(=O)c4csc(NC(=O)c5ccccc5OC(F)(F)F)n4)sc3c2)CC1 [compound 42] | +++ (“+++” stands for 90-100% inhibition) |
| O=C(Nc1nc2ccc([N+](=O)[O-])cc2[nH]1)c1csc(NC(=O)c2ccccc2OC(F)(F)F)n1 [compound 43] | +++ (“+++” stands for 90-100% inhibition) |
| N=C(NC(=O)c1csc(NC(=O)c2ccccc2C2CCCCC2)n1)Nc1nc2ccccc2[nH]1 [compound 45] | +++ (“+++” stands for 90-100% inhibition) |
| Cn1c(NC(=O)c2csc(NC(=O)c3ccccc3OC(F)(F)F)n2)nc2ccccc21 [compound 46] | +++ (“+++” stands for 90-100% inhibition) |
| CCCS(=O)(=O)c1ccc2[nH]c(NC(=O)c3csc(NC(=O)c4ccccc4OC(F)(F)F)n3)nc2c1 [compound 47] | +++ (“+++” stands for 90-100% inhibition) |
| N=C(NC(=O)c1csc(N2CCOCC2)n1)Nc1nc2ccccc2[nH]1 [compound 49] | +++ (“+++” stands for 90-100% inhibition) |
| N=C(NC(=O)c1csc(NC(=O)c2ccc(C(F)(F)F)cc2)n1)Nc1nc2ccccc2[nH]1 [compound 51] | +++ (“+++” stands for 90-100% inhibition) |
| CCCS(=O)(=O)c1ccc2[nH]c(NC(=O)c3csc(C4CCN(C(=O)c5ccccc5OC(F)(F)F)CC4)n3)nc2c1 [compound 52] | +++ (“+++” stands for 90-100% inhibition) |
| NC(=Nc1nc2ccccc2[nH]1)NC(=O)c1csc(NC(=O)c2ccc(C(F)(F)F)cc2F)n1 [compound 53] | +++ (“+++” stands for 90-100% inhibition) |
| NC(=Nc1nc2ccccc2[nH]1)NC(=O)c1csc(NC(=O)Nc2ccccc2OC(F)(F)F)n1 [compound 54] | +++ (“+++” stands for 90-100% inhibition) |
| NC(=Nc1nc2ccccc2[nH]1)NC(=O)c1csc(NC(=O)c2ccc(C(F)(F)F)c(F)c2)n1 [compound 56] | +++ (“+++” stands for 90-100% inhibition) |
| NC(=Nc1nc2ccccc2[nH]1)NC(=O)c1csc(NC(=O)c2c(F)cccc2F)n1 [compound 57] | +++ (“+++” stands for 90-100% inhibition) |

Same assay, conditions: compounds of formula (I); TNF-α stimulated reporter cells; test concentration not given

| SMILES | Biological activity (NF-κB inflammation assay, inhibition) |
| --- | --- |
| COc1ccc(OC)c(N2CCC(c3nc(C(=O)N4CCN(c5cccc(C(F)(F)F)c5)CC4)cs3)CC2)c1 [compound 29] | ++ (“++” means 80-90%) |
| O=C(c1csc(C2CCN(CCC(c3ccccc3)c3ccccc3)CC2)n1)N1CCN(c2cccc(C(F)(F)F)c2)CC1 [compound 35] | +++ (“+++” stands for 90-100% inhibition) |
| N#Cc1ccc(C(=O)N2CCC(c3nc(C(=O)N4CCN(c5cccc(C(F)(F)F)c5)CC4)cs3)CC2)cc1 [compound 70] | ++ (“++” means 80-90%) |

Same assay, conditions: compounds of formula (II); TNF-α stimulated reporter cells; test concentration not given

| SMILES | Biological activity (NF-κB inflammation assay, inhibition) |
| --- | --- |
| O=C(Nc1nc(C(=O)N2CCN(c3cccc(C(F)(F)F)c3)CC2)cs1)c1ccccc1OC(F)(F)F [compound 32] | +++ (“+++” stands for 90-100% inhibition) |
| O=C(CCC1CCCC1)Nc1nc(C(=O)N2CCN(c3cccc(C(F)(F)F)c3)CC2)cs1 [compound 33] | +++ (“+++” stands for 90-100% inhibition) |
| O=C(Nc1nc(C(=O)N2CCN(c3cccc(C(F)(F)F)c3)CC2)cs1)c1ccc(C(F)(F)F)c(F)c1 [compound 34] | +++ (“+++” stands for 90-100% inhibition) |
| O=C(CCC1CCCC1)N1CCN(c2nc(C(=O)N3CCN(c4cccc(C(F)(F)F)c4)CC3)cs2)CC1 [compound 37] | +++ (“+++” stands for 90-100% inhibition) |
| COc1ccccc1C(=O)N1CCN(c2nc(C(=O)N3CCN(c4cccc(C(F)(F)F)c4)CC3)cs2)CC1 [compound 38] | +++ (“+++” stands for 90-100% inhibition) |
| O=C(c1csc(N2CCN(C(=O)c3ccccc3OC(F)(F)F)CC2)n1)N1CCN(c2cccc(C(F)(F)F)c2)CC1 [compound 39] | +++ (“+++” stands for 90-100% inhibition) |
| O=C(Nc1nc(C(=O)N2CCN(c3ccc(Cl)c(Cl)c3)CC2)cs1)c1ccccc1OC(F)(F)F [compound 41] | +++ (“+++” stands for 90-100% inhibition) |
| COc1ccccc1N1CCN(C(=O)c2csc(NC(=O)c3ccccc3OC(F)(F)F)n2)CC1 [compound 44] | ++ (“++” means 80-90%) |
| O=C(Nc1nc(C(=O)N2CCN(c3cccc(C(F)(F)F)c3)CC2)cs1)Nc1ccccc1OC(F)(F)F [compound 55] | +++ (“+++” stands for 90-100% inhibition) |
| O=C(Nc1nc(C(=O)N2CCN(C(c3ccccc3)c3ccccc3)CC2)cs1)c1ccccc1OC(F)(F)F [compound 58] | ++ (“++” means 80-90%) |
| O=C(c1cc(C(F)(F)F)cc(C(F)(F)F)c1)N1CCN(c2nc(C(=O)N3CCN(c4cccc(C(F)(F)F)c4)CC3)cs2)CC1 [compound 59] | + (“+” stands for 50-80% inhibition) |
| O=C(c1ccc(C(F)(F)F)c(F)c1)N1CCN(c2nc(C(=O)N3CCN(c4cccc(C(F)(F)F)c4)CC3)cs2)CC1 [compound 60] | +++ (“+++” stands for 90-100% inhibition) |
| N#Cc1ccc(C(=O)N2CCN(c3nc(C(=O)N4CCN(c5cccc(C(F)(F)F)c5)CC4)cs3)CC2)cc1 [compound 61] | +++ (“+++” stands for 90-100% inhibition) |
| N#Cc1ccc(CN2CCN(c3nc(C(=O)N4CCN(c5cccc(C(F)(F)F)c5)CC4)cs3)CC2)cc1 [compound 62] | +++ (“+++” stands for 90-100% inhibition) |
| CC(C)(C)OC(=O)N1CCN(c2nc(C(=O)N3CCN(c4cccc(C(F)(F)F)c4)CC3)cs2)CC1 [compound 63] | ++ (“++” means 80-90%) |
| O=C(c1csc(N2CCNCC2)n1)N1CCN(c2cccc(C(F)(F)F)c2)CC1 [compound 64] | + (“+” stands for 50-80% inhibition) |
| COc1ccccc1N1CCN(c2nc(C(=O)N3CCN(c4cccc(C(F)(F)F)c4)CC3)cs2)CC1 [compound 65] | ++ (“++” means 80-90%) |
| CC(=O)c1ccc(N2CCN(c3nc(C(=O)N4CCN(c5cccc(C(F)(F)F)c5)CC4)cs3)CC2)cc1 [compound 66] | ++ (“++” means 80-90%) |
| O=C(c1csc(N2CCN(c3cccc(C(F)(F)F)c3)CC2)n1)N1CCN(c2cccc(C(F)(F)F)c2)CC1 [compound 67] | + (“+” stands for 50-80% inhibition) |
| O=C(c1csc(N2CCN(c3ccccc3)CC2)n1)N1CCN(c2cccc(C(F)(F)F)c2)CC1 [compound 68] | + (“+” stands for 50-80% inhibition) |
| O=C(c1csc(N2CCN(c3ccc(F)cc3)CC2)n1)N1CCN(c2cccc(C(F)(F)F)c2)CC1 [compound 69] | ++ (“++” means 80-90%) |
| O=C(c1csc(N2CCN(Cc3ccccc3)CC2)n1)N1CCN(C(c2ccccc2)c2ccccc2)CC1 [compound 71] | +++ (“+++” stands for 90-100% inhibition) |
| O=C(c1csc(N2CCN(Cc3ccccc3)CC2)n1)N1CCN(c2cccc(C(F)(F)F)c2)CC1 [compound 72] | +++ (“+++” stands for 90-100% inhibition) |

Same assay, conditions: compounds of formula (Ia); TNF-α stimulated reporter cells; test concentration not given

| SMILES | Biological activity (NF-κB inflammation assay, inhibition) |
| --- | --- |
| O=C(Nc1cc(F)cc2c1OCCO2)N1CCC(c2nc(C(=O)N3CCN(c4cccc(C(F)(F)F)c4)CC3)cs2)CC1 [compound 74] | ++ (“++” means 80-90%) |
| O=C(Nc1ccc2c(c1)OCCO2)N1CCC(c2nc(C(=O)N3CCN(c4cccc(C(F)(F)F)c4)CC3)cs2)CC1 [compound 75] | ++ (“++” means 80-90%) |
| Cc1cc(NC(=O)N2CCC(c3nc(C(=O)N4CCN(c5cccc(C(F)(F)F)c5)CC4)cs3)CC2)c(C(F)(F)F)o1 [compound 76] | ++ (“++” means 80-90%) |
